# According to US8673368B2, “Cannabinoid-containing plant extracts as neuroprotective agents” (GW Pharma Limited, priority 2006, dated 2014):
# How the values were obtained:
# [1] = test system: NMDA receptor; settings: cited from earlier work
# [2] = test system: hippocampal neurones; test: Effect of five-minute application of 1 μM test article on intracellular calcium levels (calcium imaging, Fura-2-AM); assay type: cell-based, Lister-Hooded rat; settings: for Concentration of intracellular Ca2+ Post-treatment: after five-minute application of 1 μM test article; for Fura-2 350/380 nm ratio, pre-treatment: baseline before five-minute application of 1 μM test article; for %ΔF/F / Concentration of intracellular Ca2+ Response (Post-Pre): five-minute application of 1 μM test article
# Protocol: (§1) Standard primary hippocampal cultures were prepared from Lister-Hooded rat pups (1-3 days old), euthanised by cervical dislocation, in accordance with Home Office and institute regulations. The brain was quickly removed, hippocampi dissected out and placed in ice-cold filtered HEPES buffered solution (HBS, composition in mM: NaCl 130; KCl 5.4; CaCl2 1.8; MgCl2 1.0; HEPES 10; glucose 25). Micro-dissection was performed to remove blood vessels and excess, non-hippocampal, tissue.
# (§2) The hippocampal tissue was thinly chopped and placed in 1 mg/ml type X and XIV protease solution (40 minutes). The tissue was then washed in HBS and triturated several times using graded fire-polished glass Pasteur pipettes. Following centrifugation, the supernatant was removed and the remaining tissue pellet re-suspended in tissue culture medium (90% Minimum Essential Medium with 10% foetal bovine serum and 2 mM L-glutamine). The tissue was stored at standard conditions: in a humidified incubator at 37° C. and in 5% CO2, and re-centrifuged.
# (§3) Excess medium was removed and the tissue pellet re-suspended in culture medium for plating. A drop of cell suspension was placed on the centre of a 35 mm culture dish, coated with poly-L-lysine and incubated at 37° C. for 1 hour. Following this, a further 2 ml of tissue culture medium was gently added to each dish and the culture kept in a humidified incubator (37° C.; 5% CO2).
# (§4) Cultures were allowed to mature for 2 days before replacement of MEM with Neurobasal Medium, supplemented with 2% B27, 2 mM L-glutamine, and 25 μM L-glutamate. Culture dishes were used for imaging at 5-10 days in vitro.
# (§5) For calcium imaging experiments, hippocampal cultures were washed with HBS at room temperature and loaded with the cell-permeable fluorescent calcium indicator Fura-2-AM (10 μM) for 1 hour in the dark.
# (§6) The sodium channel blocker tetrodotoxin (TTX) was added to all perfusion media, to avoid spontaneous cell firing and transmitter release, ensuring only post-synaptic effects were visualised.
# (§7) Cultures were perfused with HBS or low Mg^2+HEPES buffered solution for experiments involving NMDA (composition in mM: NaCl 130; KCl 5.4; CaCl2 1.8; MgCl2 0.1; HEPES 10; glucose 25), at a rate of 1-2 ml/min, using a gravity perfusion system.
# (§8) A suitable field of cells was identified under the microscope and a greyscale transmission image visualised and captured using Oracal software. A Xenon lamp, which gave a single wavelength of light, was used to expose the cells to 350 nm and 380 nm, specified by the monochromator.
# (§9) The ratio of these wavelengths, which is directly proportional to intracellular calcium levels in the cells, was plotted after background fluorescence subtraction.
# (§10) The data that were produced were pooled and means for each experiment determined.
# In order to test the regulation of calcium homeostasis in the presence of the test article, the effects were measured in response to a five-minute application of 1 μM sample.
# (§11) Fluorescent units were converted into %ΔF/F. F is defined as an average of five baseline values before drug application. The value for %ΔF/F is therefore the percentage change in the […] by the average baseline value before drug application.
# All experiments were performed a minimum of three times, each on neurones from a different culture. Only changes in fluorescence >0.1 ratio units were considered as a response. Data were exported to Excel and statistical analysis performed using Prism. Normality tests confirmed absence of normal distribution of data. Therefore, a Mann Whitney U test was utilised for paired comparisons and for multiple group comparisons a Kruskal-Wallis test with either a Dunn's or Mann Whitney post-test used.
# The effects of the essentially pure cannabinoids, the cannabinoid-containing plant extracts and the cannabinoid-ratioed comparators were assessed to investigate the responses of the neurones to these different forms of cannabinoid.
# [3] = test system: hippocampal neurones; test: Acute modulation of NMDA (10 μM) calcium response by five-minute application of 1 μM test article; assay type: cell-based, Lister-Hooded rat; settings: for Pre-treatment %ΔF/F / Pre-treatment [Ca2+]: initial two-minute NMDA (10 μM) application, before test article; for Response (% change): reduction of NMDA (10 μM) calcium response by 1 μM test article, positive = reduction; for Post-treatment %ΔF/F / Post-treatment [Ca2+]: second two-minute NMDA (10 μM) application after five minutes of 1 μM test article
# Protocol: as §1, §2, §3, §4, §5, §6, §7, §8, §9, §10
# (§12) A stock of NMDA (10 mM) was made up in double-distilled water and the necessary concentrations made up in HBS. NMDA (with 100 μM glycine) was applied in every experiment to categorically distinguish between neuronal and glial cells in the image obtained.
# The acute modulatory effect of calcium homeostasis was assessed by comparing an initial two-minute application of NMDA (10 μM) with a subsequent two-minute application of NMDA (10 μM). The subsequent application of the NMDA followed a five minute application of 1 μM sample.
# as §11
# (§13) All experiments were performed a minimum of three times, each on neurones from a different culture. Only changes in fluorescence >0.1 ratio units were considered as a response. Data were exported to Excel and statistical analysis performed using Prism. Normality tests confirmed absence of normal distribution of data. […]
# [4] = test system: hippocampal neurones; test: Intracellular calcium ion concentration after overnight incubation with 1 μM test article; assay type: cell-based, Lister-Hooded rat; settings: for Concentration of intracellular Ca2+ Response (Post-Pre): overnight incubation with 1 μM test article at 37° C., 5% CO2; for Change from control (%): overnight incubation with 1 μM test article, control = naïve culture dishes, minus = reduction
# Protocol: as §1, §2, §3, §4, §5, §6, §7, §8, §9, §10
# (§14) To assess the effects of the test articles under more realistic chronic treatment regimes, cells were incubated overnight with 1 μM sample and responses to increasing doses of NMDA assessed (1, 10 & 100 μM).
# as §11
# All experiments were performed a minimum of three times, each on neurones from a different culture. Only changes in fluorescence >0.1 ratio units were considered as a response. […]
# [5] = test system: hippocampal neurones; test: Response to increasing doses of NMDA after overnight incubation with 1 μM test article; assay type: cell-based, Lister-Hooded rat
# Protocol: as §1, §2, §3, §4, §5, §6, §7, §8, §9, §10, §12, §14, §11, §13
# [6] = test system: hippocampal neurones; test: Acute effect on NMDA calcium ion response following overnight incubation with test article; assay type: cell-based, Lister-Hooded rat; settings: for Response (% change): overnight incubation plus acute 1 μM test article, NMDA 10 μM, positive = reduction, minus = increase; for Post-treatment %ΔF/F / Post-treatment [Ca2+] / Pre-treatment %ΔF/F / Pre-treatment [Ca2+]: overnight incubation with 1 μM test article; for Post-treatment %ΔF/F / Post-treatment [Ca2+]: NMDA 10 μM after 5 minute application of 1 μM same test article; for Pre-treatment %ΔF/F / Pre-treatment [Ca2+]: NMDA 10 μM for 2 minutes, before acute application
# Protocol: as §1, §2, §3, §4, §5, §6, §7, §8, §9, §10, §12
# In order to assess whether the acute modulatory effects are altered by overnight incubation, the cells were incubated overnight with the 1 μM sample and assessed by comparing an initial two-minute application of NMDA (10 μM) with a subsequent two-minute application of NMDA (10 μM). The subsequent application of the NMDA followed a five minute application of 1 μM test article.
# as §11
# All experiments were performed a minimum of three times, each on neurones from a different culture. Only changes in fluorescence >0.1 ratio units were considered as a response. Data were exported to Excel and statistical analysis performed using Prism. […]
# [7] = test system: neuronal cultures exposed to glutamate; settings: in vitro, isolated or synthetic cannabinoid; cited from earlier work
# [8] = isolated or synthetic CBD; cited from earlier work
smiles,measurement,setting,value
O=C(O)[C@@H]1C[C@H](CP(=O)(O)O)CCN1 (racemic) [Selfotel],Mortality rate versus placebo,[1]; stroke patients,trends towards a higher mortality rate
CN1CC[C@@]23CCCC[C@@H]2[C@@H]1Cc1ccc(O)cc13 [Dextrorphan],Side effects,[1]; human subjects,"hallucinations, agitation and hypotension"
"C=C(C)[C@@H]1CCC(C)=C[C@H]1c1c(O)cc(CCCCC)cc1O [P-CBD, cannabidiol]",Concentration of intracellular Ca2+ Post-treatment,[2],1.172
same,"Fura-2 350/380 nm ratio, pre-treatment",[2],0.805
same,%ΔF/F,[2],45.45%
same,Concentration of intracellular Ca2+ Response (Post-Pre),[2],0.367
same,Pre-treatment %ΔF/F,[3],91.70%
same,Pre-treatment [Ca2+],[3],0.722
same,Response (% change),[3],58.2%
same,Response (% change),[3]; listed as essentially pure CBD,far greater reduction
same,Post-treatment %ΔF/F,[3],32.91%
same,Post-treatment [Ca2+],[3],0.302
same,Concentration of intracellular Ca2+ Response (Post-Pre),[4],0.893
same,Change from control (%),[4],13.2%
same,%ΔF/F,[5]; 1 μM NMDA,43.80%
same,Concentration of intracellular Ca2+ Post-treatment,[5]; 1 μM NMDA,0.410
same,Concentration of intracellular Ca2+ Pre-treatment,[5]; 1 μM NMDA,0.933
same,Concentration of intracellular Ca2+ Response (Post-Pre),[5]; 1 μM NMDA,−0.523
same,%ΔF/F,[5]; 10 μM NMDA,53.54%
same,Concentration of intracellular Ca2+ Post-treatment,[5]; 10 μM NMDA,0.489
same,Concentration of intracellular Ca2+ Pre-treatment,[5]; 10 μM NMDA,0.913
same,Concentration of intracellular Ca2+ Response (Post-Pre),[5]; 10 μM NMDA,−0.424
same,%ΔF/F,[5]; 100 μM NMDA,141.57%
same,Concentration of intracellular Ca2+ Post-treatment,[5]; 100 μM NMDA,1.289
same,Concentration of intracellular Ca2+ Pre-treatment,[5]; 100 μM NMDA,0.910
same,Concentration of intracellular Ca2+ Response (Post-Pre),[5]; 100 μM NMDA,0.379
same,Response (% change),[6],−68.6%
same,Response (% change),[6]; listed as essentially pure CBD,increased the concentration to a large extent
same,Post-treatment %ΔF/F,[6],71.97%
same,Post-treatment [Ca2+],[6],0.715
same,Pre-treatment %ΔF/F,[6],52.42%
same,Pre-treatment [Ca2+],[6],0.424
same,Prevention of glutamate toxicity,[7],prevented to some extent
same,Difference between treated and placebo treated animals,[8],failed to find a difference
"CCCCCc1cc(O)c2c(c1)OC(C)(C)[C@@H]1CCC(C)=C[C@@H]21 [P-THC, tetrahydrocannabinol]",Concentration of intracellular Ca2+ Post-treatment,[2],0.588
same,"Fura-2 350/380 nm ratio, pre-treatment",[2],0.363
same,%ΔF/F,[2],56.38%
same,Concentration of intracellular Ca2+ Response (Post-Pre),[2],0.225
same,Pre-treatment %ΔF/F,[3],93.69%
same,Pre-treatment [Ca2+],[3],0.741
same,Response (% change),[3],19.6%
same,Response (% change),[3]; listed as essentially pure THC,lowest amount of reduction
same,Post-treatment %ΔF/F,[3],63.81%
same,Post-treatment [Ca2+],[3],0.596
same,Concentration of intracellular Ca2+ Response (Post-Pre),[4],0.826
same,Change from control (%),[4],6.2%
same,Change from control (%),[4]; listed as essentially pure THC,increase
same,%ΔF/F,[5]; 1 μM NMDA,62.24%
same,Concentration of intracellular Ca2+ Post-treatment,[5]; 1 μM NMDA,0.522
same,Concentration of intracellular Ca2+ Pre-treatment,[5]; 1 μM NMDA,0.839
same,Concentration of intracellular Ca2+ Response (Post-Pre),[5]; 1 μM NMDA,−0.317
same,Concentration of intracellular Ca2+ Response (Post-Pre),"[5]; 1 μM NMDA, listed as essentially pure THC",did not reduce the concentration of calcium ions as much as the others
same,%ΔF/F,[5]; 10 μM NMDA,57.50%
same,Concentration of intracellular Ca2+ Post-treatment,[5]; 10 μM NMDA,0.498
same,Concentration of intracellular Ca2+ Pre-treatment,[5]; 10 μM NMDA,0.866
same,Concentration of intracellular Ca2+ Response (Post-Pre),[5]; 10 μM NMDA,−0.368
same,%ΔF/F,[5]; 100 μM NMDA,200.35%
same,Concentration of intracellular Ca2+ Post-treatment,[5]; 100 μM NMDA,1.897
same,Concentration of intracellular Ca2+ Pre-treatment,[5]; 100 μM NMDA,0.947
same,Concentration of intracellular Ca2+ Response (Post-Pre),[5]; 100 μM NMDA,0.950
same,Response (% change),[6],−28.5%
same,Post-treatment %ΔF/F,[6],38.93%
same,Post-treatment [Ca2+],[6],0.487
same,Pre-treatment %ΔF/F,[6],46.53%
same,Pre-treatment [Ca2+],[6],0.379
same,Prevention of glutamate toxicity,[7],prevented to some extent
